Test results reported in patent US20160136284A1, “GLIOMA TREATMENT” (priority 2012, published 2016).
Entries after “also recorded” stand apart in the source; their conditions may differ.

Experiments:
[1] = system: diffuse intrinsic pontine glioma; assay: CED of carboplatin in a patient with diffuse intrinsic pontine glioma
Source text: MR imaging under general anaesthetic was undertaken to facilitate pre-operative stereotactic planning (field strength 3 T, Philips Achieva TX, Philips Healthcare, The Netherlands) one week prior to surgery. […] A left transfrontal trajectory for catheter implantation was planned (FIGS. 7a-d) facilitating the in-house manufacture of a bespoke catheter with a winged hub (FIG. 8a). The catheter was manufactured from polyether ether ketone (PEEK) with an outer diameter (OD) of 0.6 mm, which was bonded onto a fused silica cannula with a laser-cut tip (OD 0.23 mm). The catheter was designed to be implanted through a 1 mm OD carbothane guide-tube.
On the day of surgery the patient was anaesthetised and placed in a Leksell frame. A pre-operative CT angiogram was performed and co-registered with the post-contrast T1 weighted planning MRI scan to facilitate output of stereotactic co-ordinates to a Neuro|Mate® neurosurgical robot (Renishaw) (FIG. 8b). A 3 cm left frontal curvilinear scalp incision was made and the periosteum retracted. The robot was driven to the entry position on the skull, and using custom-made hand drills, a multi-featured burr hole made into which the guide tube hub would push fit. The dura was pierced and a 1 mm guide rod inserted to a point 24 mm proximal to the target within the tumour. The guide tube was then implanted on a 0.6 mm guide rod to maintain trajectory. The catheter was tunnelled out through a separate stab incision in the scalp and connected to a custom-made in-line gas and bacterial filter. The catheter was attached to an infusion pump (B Braun, Melsungen, Germany) and primed with artificial cerebrospinal fluid (Torbay Pharmaceutical Manufacturing Unit, Torbay, UK). The fused silica catheter was then implanted via the guide-tube with 3 mm of fused silica retained within the guide tube and 24 mm extending beyond the guide-tube tip, thus creating a “recessed-step” within the distal guide-tube (FIG. 8c). The winged hub of the catheter was turned 90° at the skull and secured with 5 mm titanium screws. […] The skin incision was closed in layers and the externalised catheter tubing secured in a loop on the scalp (FIG. 8d).
Whilst under general anaesthesia the child was transferred to the 3 T MRI scanner. The externalised catheter was attached to a 6 m extension line to allow infusions to be performed from a syringe driver (B Braun) outside of the scan room. Infusions of carboplatin diluted in artificial cerebrospinal fluid to a concentration of 0.09 mg/ml were commenced using the following infusion regime:
0.5 μl/min for 10 minutes, 1 μl/min for 5 minutes, 2.5 μl/min for 5 minutes, 5 μl/min for 5 minutes, 7.5 μl/min until completion.
Serial real-time T2-weighted MRI scans were performed in order to allow areas of hyperintense signal change to be used as a proxy measure for drug distribution. […] Once the Vi:Vd ratio was established the child was recovered from anaesthesia and monitored in a high dependency area until completion of the infusion. […] Infusions of carboplatin were performed on 3 consecutive days in order to maintain exposure to the cytotoxic chemotherapy for at least 72 hours.

GBM = settings: 4 consecutive sets of infusions at 0.03 mg/ml, assuming 50% kill per set
Experimental: This is a phase I, single centre, dose-escalation study, of carboplatin administered by CED, into the peritumoural region of patients with recurrent or progressive GBM, following tumour resection. The study will incorporate six cohorts, with three patients in each cohort.
Following tumour resection (study day 0), patients undergo a baseline MRI scan (study day 10-21), followed within 24 hours by catheter implantation. For patients with progressive multifocal disease in whom re-resection is not felt to be appropriate, catheters are implanted following a baseline MRI scan. Prior to catheter implantation, patients are loaded with phenytoin (unless allergic) and will be kept on this anticonvulsant during the duration of their infusions. In the event of allergy to phenytoin, patients are administered an alternative anticonvulsant during this time period. […] Catheter tip location is determined at the operating surgeon's discretion, and will be based on diffusion imaging-based fibre-tracking using iPlan Flow (Brainlab, Germany) and experience gained in animal models and previous patients. Up to four catheters are implanted per patient under general anaesthetic and attached to connector tubing, which will be tunnelled to a subcutaneous access device incorporating in-line bacterial filters, implanted in the infraclavicular fossa. […]

[2] = system: SNB19 and UPAB glioma cells; assay: MTT cytotoxicity assay in glioma cell lines; assay type: cell-based
Experimental: Cell lines were kindly provided by Geoffrey Pilkington from the Institute of Biomedical and Biomolecular Sciences at Portsmouth University, UK. The cell lines used in this study were SNB19 (P20-P45) and UPAB (P20-P45).
Briefly, SNB19 and UPAB glioma cells were plated at 1×10^4/well in a 24-well plate. Cells were treated 72 hours later with Carboplatin at the following concentrations: 0.06 mg, 0.12 mg, 0.18 mg, 0.24 mg, 0.3 mg, 0.36 mg, and 0.6 mg (TEVA, UK) for 24, 48, 72, or 96 hours. Each concentration was repeated 4 times. Carboplatin was diluted in phosphate buffered saline (PBS; Sigma Aldrich, UK) and added to 0.5 mL culture media. PBS was used as a negative control and Puromycin dihydrochloride (10 μg/mL; Sigma Aldrich, UK), which inhibits cell growth by preventing protein synthesis, was used as a positive control. Following the incubation period, culture media was changed. Then 50 μL Methylthiazolyl-tetrazolium bromide solution (MTT; Sigma Aldrich, UK; 5 mg/mL) was added to each well and further incubated for 3 hours at 37° C. in a humidified 5% CO2 atmosphere to allow MTT to form formazan crystals in metabolically active cells. Following this, media was removed, and the formazan crystals in each well were solubilized with 190 μL of isopropanol (Fisher Scientific, Loughborough, UK) acidified with hydrochloric acid (VWR, Leicestershire, UK). The cell lysate was transferred to a 96 well plate and the absorbance of each well was measured at 570 nm using a Multiskan Ascent plate reader (Thermo Electron Corporation, UK). Results are expressed as a percentage (%) of treated versus untreated cells.

[3] = one month after completion of infusions

For N.N.O=C([O-])C1(C(=O)[O-])CCC1.[Pt+2] [carboplatin], which “volume of T2 signal change on completion of final infusion” value ([1]; after 5 infusions, 0.09 and 0.18 mg/ml) is on record?
The value was 35.1 mL.

What about the “volume of distribution (T2-weighted MRI)” value ([1]; after infusion of 0.52 ml, 0.09 mg/ml in artificial CSF) of the same compound?
Its value is 2.06 mL.

And the “follow-up T2-weighted MR imaging” value [1, 3]?
Its value is “suggestive of the early stages of tumour necrosis”.

And the “follow-up post-contrast T1-weighted imaging” value [1, 3]?
The value was “tumour progression in the inferior and anterior regions of the tumour”.

What about the tolerability of infusions ([1]; patient, 0.09-0.18 mg/ml, up to 10 μl/min) of the same compound?
Its tolerability of infusions is “well tolerated; also recorded: transient worsening in neurological status”.

And the “theoretical tumour cell kill” value (GBM)?
The value was 94%.

And the “concentration above which increase in cell kill is negligible” value ([2]; 72 hour exposure)?
The value was 0.24 mg/mL.

And the “concentration above which increase in cell kill is negligible” value ([2]; 96 hour exposure)?
The value was 0.18 mg/mL.

And the cell kill ([2]; 96 hour exposure, 0.18 mg/ml)?
Its cell kill is “greater than 90%”.
